{"source": "patent US8759342B2", "about": "“Benzo[1,4]oxazin-3-one, benzo[1,4]thiazin-3-one and quinolin-2-one urotensin II receptor antagonists” (Janssen Pharmaceutica NV, priority 2006, dated 2014)", "molecular_target": "T1, rat GPR14 (U-II receptor) (Rattus norvegicus, UniProt P49684)", "T1 construct": "expressed in transfected cells", "T1 sequence (P49684 1-386)": "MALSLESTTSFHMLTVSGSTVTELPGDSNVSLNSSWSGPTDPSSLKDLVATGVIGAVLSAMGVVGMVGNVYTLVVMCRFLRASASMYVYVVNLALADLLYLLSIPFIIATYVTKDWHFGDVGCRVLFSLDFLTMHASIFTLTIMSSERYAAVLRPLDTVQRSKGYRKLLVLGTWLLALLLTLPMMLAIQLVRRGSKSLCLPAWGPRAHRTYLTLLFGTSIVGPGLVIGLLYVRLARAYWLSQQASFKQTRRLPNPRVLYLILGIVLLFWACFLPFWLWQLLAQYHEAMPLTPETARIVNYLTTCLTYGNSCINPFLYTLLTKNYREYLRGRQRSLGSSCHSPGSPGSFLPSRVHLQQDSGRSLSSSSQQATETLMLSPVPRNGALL", "assay": "Calcium flux assay (FLIPR)", "type": "cell-based", "details": "Inhibition of acetyl-cyclic[Cys-Phe-Trp-Lys-(2-Nal)-Cys]-NH2 (1 nM) induced Ca2+ mobilization (FLIPR) in CHO cells transfected with rat UII receptor; 5 min incubation", "description": "To derive these cells, the complete coding sequence of rat […] was amplified by nested PCR from rat heart marathon-Ready cDNA. […] The PCR products were cloned into pcDNA3 (Invitrogen) digested with EcoR I and Xba I. Clones containing rat U-II receptor were verified by complete sequencing of the U-II receptor insert to ensure a lack of PCR-introduced errors. The constructed vector was transfected into CHO cells by using lipofectamine (GIBCO BRL). CHO cells with high expression of rat U-II receptor were selected and established as stable cell lines by using G418. CHO cells were seeded at 25,000 cells per well into 96-well, black-wall, clear-bottom microtiter plates 24 hrs before assay. Cells in culture media (DMEM/F12 containing 15 mM HEPES, L-glutamine, pyridoxine hydrochloride; 10% fetal bovine serum; 1 mg/mL G418 sulfate; antibiotic-antimycotic; pH 7.4) were loaded with proprietary dye, from the FLIPR Calcium Assay Kit (Molecular Devices), prepared in assay buffer (Hanks Balanced Salts Solution, 20 mM HEPES, 0.1% BSA, 2.5 mM probenecid, pH 7.4), and incubated for 1 hr at 37° C. Calcium mobilization determinations were performed at room temperature (23° C.).", "data": [{"smiles": "O=C(NCc1ccccc1)c1ccccc1C1CCN(CCN2C(=O)COc3ccccc32)CC1", "note": "[Cpd 2, N-benzyl-2-{1-[2-(3-oxo-2,3-dihydro-benzo[1,4]oxazin-4-yl)-ethyl]-piperidin-4-yl}-benzamide]", "values": [{"measurement": "IC50", "value": 7.9, "unit": "µM"}]}, {"smiles": "O=C(NCCCCc1ccccc1)c1ccccc1C1CCN(CCN2C(=O)COc3ccccc32)CC1", "note": "[Cpd 4]", "values": [{"measurement": "IC50", "value": 3.1, "unit": "µM"}]}, {"smiles": "CN(Cc1ccccc1)C(=O)c1ccccc1C1CCN(CCN2C(=O)COc3ccccc32)CC1", "note": "[Cpd 5, N-benzyl-N-methyl-2-{1-[2-(3-oxo-2,3-dihydro-benzo[1,4]oxazin-4-yl)-ethyl]-piperidin-4-yl}-benzamide]", "values": [{"measurement": "IC50", "value": 11, "unit": "µM"}]}, {"smiles": "COc1cccc(CCNC(=O)c2ccccc2C2CCN(CCN3C(=O)COc4ccccc43)CC2)c1", "note": "[Cpd 6, N-[2-(3-methoxy-phenyl)-ethyl]-2-{1-[2-(3-oxo-2,3-dihydro-benzo[1,4]oxazin-4-yl)-ethyl]-piperidin-4-yl}-benzamide]", "values": [{"measurement": "IC50", "value": 10, "unit": "µM"}]}, {"smiles": "O=C(NCCc1ccc(Cl)cc1Cl)c1ccccc1C1CCN(CCN2C(=O)COc3ccccc32)CC1", "note": "[Cpd 7, N-[2-(2,4-dichloro-phenyl)-ethyl]-2-{1-[2-(3-oxo-2,3-dihydro-benzo[1,4]oxazin-4-yl)-ethyl]-piperidin-4-yl}-benzamide]", "values": [{"measurement": "IC50", "value": 19, "unit": "µM"}]}, {"smiles": "O=C(NCCc1ccccc1Cl)c1ccccc1C1CCN(CCN2C(=O)COc3ccccc32)CC1", "note": "[Cpd 8, N-[2-(2-chloro-phenyl)-ethyl]-2-{1-[2-(3-oxo-2,3-dihydro-benzo[1,4]oxazin-4-yl)-ethyl]-piperidin-4-yl}-benzamide]", "values": [{"measurement": "IC50", "value": 14, "unit": "µM"}]}, {"smiles": "O=C(NCCc1ccc(Cl)cc1)c1ccccc1C1CCN(CCN2C(=O)COc3ccccc32)CC1", "note": "[Cpd 9, N-[2-(4-chloro-phenyl)-ethyl]-2-{1-[2-(3-oxo-2,3-dihydro-benzo[1,4]oxazin-4-yl)-ethyl]-piperidin-4-yl}-benzamide]", "values": [{"measurement": "IC50", "value": 3.2, "unit": "µM"}]}, {"smiles": "COc1ccc(CCNC(=O)c2ccccc2C2CCN(CCN3C(=O)COc4ccccc43)CC2)cc1OC", "note": "[Cpd 10, N-[2-(3,4-dimethoxy-phenyl)-ethyl]-2-{1-[2-(3-oxo-2,3-dihydro-benzo[1,4]oxazin-4-yl)-ethyl]-piperidin-4-yl}-benzamide]", "values": [{"measurement": "IC50", "value": 13, "unit": "µM"}]}, {"smiles": "O=C(NCCc1ccc(Cl)c(Cl)c1)c1ccccc1C1CCN(CCN2C(=O)COc3ccccc32)CC1", "note": "[Cpd 11, N-[2-(3,4-dichloro-phenyl)-ethyl]-2-{1-[2-(3-oxo-2,3-dihydro-benzo[1,4]oxazin-4-yl)-ethyl]-piperidin-4-yl}-benzamide]", "values": [{"measurement": "IC50", "value": 5.4, "unit": "µM"}]}, {"smiles": "CC(Cc1ccc(Cl)cc1)NC(=O)c1ccccc1C1CCN(CCN2C(=O)COc3ccccc32)CC1", "note": "(stereo not drawn) [Cpd 12, N-[2-(4-chloro-phenyl)-1-methyl-ethyl]-2-{1-[2-(3-oxo-2,3-dihydro-benzo[1,4]oxazin-4-yl)-ethyl]-piperidin-4-yl}-benzamide]", "values": [{"measurement": "IC50", "value": 10, "unit": "µM"}]}, {"smiles": "COc1ccc(OC)c(CCNC(=O)c2ccccc2C2CCN(CCN3C(=O)COc4ccccc43)CC2)c1", "note": "[Cpd 13, N-[2-(2,5-dimethoxy-phenyl)-ethyl]-2-{1-[2-(3-oxo-2,3-dihydro-benzo[1,4]oxazin-4-yl)-ethyl]-piperidin-4-yl}-benzamide]", "values": [{"measurement": "IC50", "value": 8, "unit": "µM"}]}, {"smiles": "COc1ccc(CCNC(=O)c2ccccc2C2CCN(CCN3C(=O)COc4ccccc43)CC2)cc1", "note": "[Cpd 14, N-[2-(4-methoxy-phenyl)-ethyl]-2-{1-[2-(3-oxo-2,3-dihydro-benzo[1,4]oxazin-4-yl)-ethyl]-piperidin-4-yl}-benzamide]", "values": [{"measurement": "IC50", "value": 4, "unit": "µM"}]}, {"smiles": "COc1ccccc1CCNC(=O)c1ccccc1C1CCN(CCN2C(=O)COc3ccccc32)CC1", "note": "[Cpd 15, N-[2-(2-methoxy-phenyl)-ethyl]-2-{1-[2-(3-oxo-2,3-dihydro-benzo[1,4]oxazin-4-yl)-ethyl]-piperidin-4-yl}-benzamide]", "values": [{"measurement": "IC50", "value": 8, "unit": "µM"}]}, {"smiles": "O=C(NCCc1ccc(F)cc1)c1ccccc1C1CCN(CCN2C(=O)COc3ccccc32)CC1", "note": "[Cpd 16, N-[2-(4-fluoro-phenyl)-ethyl]-2-{1-[2-(3-oxo-2,3-dihydro-benzo[1,4]oxazin-4-yl)-ethyl]-piperidin-4-yl}-benzamide]", "values": [{"measurement": "IC50", "value": 8, "unit": "µM"}]}, {"smiles": "COc1cc(CCNC(=O)c2ccccc2C2CCN(CCN3C(=O)COc4ccccc43)CC2)cc(OC)c1", "note": "[Cpd 17, N-[2-(3,5-dimethoxy-phenyl)-ethyl]-2-{1-[2-(3-oxo-2,3-dihydro-benzo[1,4]oxazin-4-yl)-ethyl]-piperidin-4-yl}-benzamide]", "values": [{"measurement": "IC50", "value": 7, "unit": "µM"}]}, {"smiles": "CN(CCc1ccccc1)C(=O)c1ccccc1C1CCN(CCN2C(=O)COc3ccccc32)CC1", "note": "[Cpd 18, N-methyl-2-{1-[2-(3-oxo-2,3-dihydro-benzo[1,4]oxazin-4-yl)-ethyl]-piperidin-4-yl}-N-phenethyl-benzamide]", "values": [{"measurement": "IC50", "value": 15, "unit": "µM"}]}, {"smiles": "O=C(NCCc1ccc(F)c(F)c1)c1ccccc1C1CCN(CCN2C(=O)COc3ccccc32)CC1", "note": "[Cpd 19, N-[2-(3,4-difluoro-phenyl)-ethyl]-2-{1-[2-(3-oxo-2,3-dihydro-benzo[1,4]oxazin-4-yl)-ethyl]-piperidin-4-yl}-benzamide]", "values": [{"measurement": "IC50", "value": 6, "unit": "µM"}]}, {"smiles": "O=C(NCCc1cc(F)cc(F)c1)c1ccccc1C1CCN(CCN2C(=O)COc3ccccc32)CC1", "note": "[Cpd 21, N-[2-(3,5-difluoro-phenyl)-ethyl]-2-{1-[2-(3-oxo-2,3-dihydro-benzo[1,4]oxazin-4-yl)-ethyl]-piperidin-4-yl}-benzamide]", "values": [{"measurement": "IC50", "value": 9, "unit": "µM"}]}, {"smiles": "O=C(NCCc1cc(F)ccc1F)c1ccccc1C1CCN(CCN2C(=O)COc3ccccc32)CC1", "note": "[Cpd 22, N-[2-(2,5-difluoro-phenyl)-ethyl]-2-{1-[2-(3-oxo-2,3-dihydro-benzo[1,4]oxazin-4-yl)-ethyl]-piperidin-4-yl}-benzamide]", "values": [{"measurement": "IC50", "value": 13, "unit": "µM"}]}, {"smiles": "O=C(NCCc1cccc(F)c1F)c1ccccc1C1CCN(CCN2C(=O)COc3ccccc32)CC1", "note": "[Cpd 23, N-[2-(2,3-difluoro-phenyl)-ethyl]-2-{1-[2-(3-oxo-2,3-dihydro-benzo[1,4]oxazin-4-yl)-ethyl]-piperidin-4-yl}-benzamide]", "values": [{"measurement": "IC50", "value": 7, "unit": "µM"}]}, {"smiles": "O=C(NCC1CC1)c1ccccc1C1CCN(CCN2C(=O)COc3ccccc32)CC1", "note": "[Cpd 24, N-cyclopropylmethyl-2-{1-[2-(3-oxo-2,3-dihydro-benzo[1,4]oxazin-4-yl)-ethyl]-piperidin-4-yl}-benzamide]", "values": [{"measurement": "IC50", "value": 12, "unit": "µM"}]}, {"smiles": "CC(CCc1ccccc1)NC(=O)c1ccccc1C1CCN(CCN2C(=O)COc3ccccc32)CC1", "note": "(stereo not drawn) [Cpd 25, N-(1-methyl-3-phenyl-propyl)-2-{1-[2-(3-oxo-2,3-dihydro-benzo[1,4]oxazin-4-yl)-ethyl]-piperidin-4-yl}-benzamide]", "values": [{"measurement": "IC50", "value": 4, "unit": "µM"}]}, {"smiles": "O=C(NC1CCc2ccccc21)c1ccccc1C1CCN(CCN2C(=O)COc3ccccc32)CC1", "note": "(stereo not drawn) [Cpd 27, N-indan-1-yl-2-{1-[2-(3-oxo-2,3-dihydro-benzo[1,4]oxazin-4-yl)-ethyl]-piperidin-4-yl}-benzamide]", "values": [{"measurement": "IC50", "value": 43, "unit": "µM"}]}, {"smiles": "CC(CNC(=O)c1ccccc1C1CCN(CCN2C(=O)COc3ccccc32)CC1)c1ccccc1", "note": "(stereo not drawn) [Cpd 28, 2-{1-[2-(3-oxo-2,3-dihydro-benzo[1,4]oxazin-4-yl)-ethyl]-piperidin-4-yl}-N-(2-phenyl-propyl)-benzamide]", "values": [{"measurement": "IC50", "value": 9, "unit": "µM"}]}, {"smiles": "CCCNC(=O)c1ccccc1C1CCN(CCN2C(=O)COc3ccccc32)CC1", "note": "[Cpd 29, 2-{1-[2-(3-oxo-2,3-dihydro-benzo[1,4]oxazin-4-yl)-ethyl]-piperidin-4-yl}-N-propyl-benzamide]", "values": [{"measurement": "IC50", "value": 20, "unit": "µM"}]}, {"smiles": "O=C(NCCN1CCCC1)c1ccccc1C1CCN(CCN2C(=O)COc3ccccc32)CC1", "note": "[Cpd 30, 2-{1-[2-(3-oxo-2,3-dihydro-benzo[1,4]oxazin-4-yl)-ethyl]-piperidin-4-yl}-N-(2-pyrrolidin-1-yl-ethyl)-benzamide]", "values": [{"measurement": "IC50", "value": 32, "unit": "µM"}]}, {"smiles": "COCCNC(=O)c1ccccc1C1CCN(CCN2C(=O)COc3ccccc32)CC1", "note": "[Cpd 36, N-(2-methoxy-ethyl)-2-{1-[2-(3-oxo-2,3-dihydro-benzo[1,4]oxazin-4-yl)-ethyl]-piperidin-4-yl}-benzamide]", "values": [{"measurement": "IC50", "value": 25, "unit": "µM"}]}, {"smiles": "COCCCNC(=O)c1ccccc1C1CCN(CCN2C(=O)COc3ccccc32)CC1", "note": "[Cpd 37, N-(3-methoxy-propyl)-2-{1-[2-(3-oxo-2,3-dihydro-benzo[1,4]oxazin-4-yl)-ethyl]-piperidin-4-yl}-benzamide]", "values": [{"measurement": "IC50", "value": 30, "unit": "µM"}]}, {"smiles": "CCOCCCNC(=O)c1ccccc1C1CCN(CCN2C(=O)COc3ccccc32)CC1", "note": "[Cpd 38, N-(3-ethoxy-propyl)-2-{1-[2-(3-oxo-2,3-dihydro-benzo[1,4]oxazin-4-yl)-ethyl]-piperidin-4-yl}-benzamide]", "values": [{"measurement": "IC50", "value": 23, "unit": "µM"}]}, {"smiles": "O=C(NCCCO)c1ccccc1C1CCN(CCN2C(=O)COc3ccccc32)CC1", "note": "[Cpd 39, N-(3-hydroxy-propyl)-2-{1-[2-(3-oxo-2,3-dihydro-benzo[1,4]oxazin-4-yl)-ethyl]-piperidin-4-yl}-benzamide]", "values": [{"measurement": "IC50", "value": 32, "unit": "µM"}]}]}
